From patent US9676760B2, “Fused heterocyclic compounds as ion channel modulators” (Gilead Sciences, Inc., priority 2011, dated 2017)

Columns and labels:
[1] = target: T1, wild-type human cardiac sodium channel, hNav1.5 (Homo sapiens, UniProt Q14524); test: Late INa screening assay (QPatch whole cell patch clamp, HEK293); type: cell-based
Outline: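 HEK293 stably expressing hNav1.5 without beta subunits, recorded at 23-25° C. Late current was induced by 10 μM tefluthrin. Cells were depolarized from −120 mV to −20 mV for 250 ms at 0.1 Hz. Compounds were tested at 1 μM in extracellular solution, with baseline taken in 0Na-ECF; output is percent block of late INa.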

[2] = target: T1, wild-type human cardiac sodium channel, hNav1.5; test: Peak INa screening assay (tonic and use-dependent block); type: cell-based; details: compound at 1 μM
Protocol: The late sodium current (Late INa) and peak sodium current (Peak INa) assays are performed on an automated electrophysiology platform, QPatch 16× (Sophion Bioscience, Copenhagen, Denmark), which uses the whole cell patch clamp technique to measure currents through the cell membrane of up to 16 cells at a time. The assay uses an HEK293 (human embryonic kidney) cell line heterologously expressing the wild-type human cardiac sodium channel, hNav1.5, purchased from Millipore (Billerica, Mass.). No beta subunits were coexpressed with the Na channel alpha subunit. Cells are maintained with standard tissue culture procedures and stable channel expression is maintained with 400 μg/mL Geneticin in the culture medium. Cells isolated for use on QPatch are incubated for 5 minutes in Detachin 1×(Genlantis, San Diego, USA) at 37° C. to ensure that 80-90% of the cells are single and not part of a cell cluster. Experiments are carried out at 23-25° C.
For both the Late INa and Peak INa assays, series resistance compensation is set to 100% and series resistance and whole-cell compensation are performed automatically. Currents are digitized at 25 kHz and low-pass filtered at 12 kHz and 10 kHz for the late and peak INa assays, respectively. Currents through open sodium channels are automatically recorded and stored in the Sophion Bioscience Oracle database (Sophion Bioscience, Copenhagen, Denmark). Analysis is performed using QPatch Assay and database software and data are compiled in Excel.
Compound stocks are routinely made by the Gilead Sample Bank in plastic vials to 10 mM in dimethyl sulfoxide (DMSO). In some cases, when compounds are not soluble in DMSO, they are made in 100% ethanol. Stocks are sonicated as necessary. The extracellular solution for screening Late INa is composed of: 140 mM NaCl, 4 mM KCl, 1.8 mM CaCl2, 0.75 mM MgCl2 and 5 mM HEPES with pH adjusted to 7.4 using NaOH. The intracellular solution used to perfuse the inside of the cells for both the Late INa and Peak INa assays contains: 120 mM CsF, 20 mM CsCl, 5 mM EGTA, 5 mM HEPES and pH adjusted to 7.4 with CsOH. Compounds are diluted in extracellular solution to 1 μM in glass vials and then transferred to glass well plates before robotic addition to the cells. The 0 mM Na extracellular solution (0Na-ECF) used at the end of each experiment for the Late INa and Peak INa assays to measure baseline current contains: 140 mM N-methyl-D-glucamine; 4 mM KCl; 1.8 mM CaCl2; 0.75 mM MgCl2; 5 mM HEPES and pH was adjusted to 7.4 with HCl.
Compounds were also evaluated for their effect in several other assays, including their effect on Peak INa. […] Since the peak INa in the cells used herein can be very large, introducing artifacts in the recording, the concentration of Na^+ in the bath can be reduced to 20 mM and a nonpermeant cation added to compensate for the Na^+ that was removed to maintain the osmolarity and ionic strength of the solution (see solution details below).
A low stimulation frequency of 0.1 Hz was used to determine the effect of the test compound when the channel spent most of the time in the resting (closed) state and provides information about Tonic Block (TB). A higher stimulation frequency (3 Hz) was used to measure block of the channel when it spent more time in the activated and inactivated states and provided a measure of Use-Dependent Block (UDB). Use-dependent block refers to the accumulation of block with increased frequency of channel activation.

[3] = HEK293, percent block of late INa, compound at 1 μM, 10 μM Tefluthrin, read-out: Late INa 1 μM
[4] = tonic block of peak INa, 0.1 Hz, read-out: Peak TB 1 μM
[5] = use-dependent block of peak INa, 3 Hz, read-out: Peak UDB 1 μM

T1 sequence (Q14524 whole entry): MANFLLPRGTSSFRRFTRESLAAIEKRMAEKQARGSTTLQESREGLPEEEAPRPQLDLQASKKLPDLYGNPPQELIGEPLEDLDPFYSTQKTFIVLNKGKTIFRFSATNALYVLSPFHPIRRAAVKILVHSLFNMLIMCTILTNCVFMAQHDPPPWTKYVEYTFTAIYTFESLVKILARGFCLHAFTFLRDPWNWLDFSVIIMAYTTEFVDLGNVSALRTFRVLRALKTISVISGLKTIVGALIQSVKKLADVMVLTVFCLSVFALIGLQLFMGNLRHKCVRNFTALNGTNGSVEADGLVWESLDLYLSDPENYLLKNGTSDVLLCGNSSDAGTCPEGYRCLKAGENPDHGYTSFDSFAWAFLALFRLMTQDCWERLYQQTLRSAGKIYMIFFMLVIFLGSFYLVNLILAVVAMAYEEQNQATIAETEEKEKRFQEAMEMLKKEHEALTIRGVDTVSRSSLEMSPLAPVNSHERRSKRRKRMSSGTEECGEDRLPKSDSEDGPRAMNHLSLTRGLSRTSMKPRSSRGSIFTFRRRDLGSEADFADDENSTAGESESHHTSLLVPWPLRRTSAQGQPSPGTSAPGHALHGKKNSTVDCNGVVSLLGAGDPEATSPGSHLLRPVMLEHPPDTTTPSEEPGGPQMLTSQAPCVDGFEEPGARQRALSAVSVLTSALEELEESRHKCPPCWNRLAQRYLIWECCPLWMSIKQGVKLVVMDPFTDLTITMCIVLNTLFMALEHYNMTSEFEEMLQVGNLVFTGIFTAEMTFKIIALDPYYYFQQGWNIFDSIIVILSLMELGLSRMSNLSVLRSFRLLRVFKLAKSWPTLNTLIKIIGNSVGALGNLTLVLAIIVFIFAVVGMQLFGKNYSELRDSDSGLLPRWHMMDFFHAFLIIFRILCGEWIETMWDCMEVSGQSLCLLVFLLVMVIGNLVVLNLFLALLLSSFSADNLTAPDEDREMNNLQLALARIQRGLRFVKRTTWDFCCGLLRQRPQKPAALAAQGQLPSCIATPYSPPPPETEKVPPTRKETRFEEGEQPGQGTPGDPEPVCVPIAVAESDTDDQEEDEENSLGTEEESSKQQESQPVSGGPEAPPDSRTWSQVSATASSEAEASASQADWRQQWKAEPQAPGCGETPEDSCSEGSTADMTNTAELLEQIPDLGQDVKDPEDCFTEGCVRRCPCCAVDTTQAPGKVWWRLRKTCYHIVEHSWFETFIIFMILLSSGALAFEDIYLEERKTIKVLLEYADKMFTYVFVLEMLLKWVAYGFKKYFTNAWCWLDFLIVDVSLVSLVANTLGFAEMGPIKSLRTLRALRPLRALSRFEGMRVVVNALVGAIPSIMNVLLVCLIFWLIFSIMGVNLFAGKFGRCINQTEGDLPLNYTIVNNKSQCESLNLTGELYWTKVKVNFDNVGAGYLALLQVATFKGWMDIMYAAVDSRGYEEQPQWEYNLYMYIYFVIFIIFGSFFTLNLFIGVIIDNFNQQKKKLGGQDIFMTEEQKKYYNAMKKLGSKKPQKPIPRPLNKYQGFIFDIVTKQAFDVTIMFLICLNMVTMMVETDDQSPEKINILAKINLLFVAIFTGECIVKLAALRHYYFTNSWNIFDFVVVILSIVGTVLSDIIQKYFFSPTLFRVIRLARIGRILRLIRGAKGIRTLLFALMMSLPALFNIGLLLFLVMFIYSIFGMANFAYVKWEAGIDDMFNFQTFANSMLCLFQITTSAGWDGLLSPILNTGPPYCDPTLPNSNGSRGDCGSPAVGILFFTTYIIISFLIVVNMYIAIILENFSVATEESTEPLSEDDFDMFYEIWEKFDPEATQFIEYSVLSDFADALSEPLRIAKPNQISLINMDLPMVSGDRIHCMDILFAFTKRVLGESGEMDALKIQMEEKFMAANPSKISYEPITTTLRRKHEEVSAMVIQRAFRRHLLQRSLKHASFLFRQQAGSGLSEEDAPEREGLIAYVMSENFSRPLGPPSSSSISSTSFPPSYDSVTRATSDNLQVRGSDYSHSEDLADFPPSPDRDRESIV

Row | SMILES | inhibition at 1 µM [1, 3] [%] | inhibition at 1 µM [2, 4] [%] | inhibition at 1 µM [2, 5] [%] | inhibition at 1 µM ([1]; HEK293, % Inhibition at 1 uM, read-out: Late INa*) [%]
1 | Cc1cnn(CN2CCOc3ccc(-c4ccc(OC(F)(F)F)cc4)cc3C2=O)c1 [II-155, 4-((4-methyl-1H-pyrazol-1-yl)methyl)-7-(4-(trifluoromethoxy)phenyl)-3,4-dihydrobenzo[f][1,4]oxazepin-5(2H)-one] | 38 | 13 | 11 | –
2 | O=C1c2cc(-c3ccc(OC(F)(F)F)cc3)ccc2OCCN1Cn1cc(Cl)cn1 [II-156, 4-((4-chloro-1H-pyrazol-1-yl)methyl)-7-(4-(trifluoromethoxy)phenyl)-3,4-dihydrobenzo[f][1,4]oxazepin-5(2H)-one] | 48 | 23 | 13 | 48
3 | O=C1c2cc(-c3ccc(C(F)F)cc3)ccc2OCCN1Cc1ccccn1 [II-157, 7-(4-(difluoromethyl)phenyl)-4-(pyridin-2-ylmethyl)-3,4-dihydrobenzo[f][1,4]oxazepin-5(2H)-one] | 43 | 13 | 16 | –
4 | O=C1c2cc(-c3ccc(Cl)c(F)c3)ccc2OCCN1Cc1ccccn1 [II-158, 7-(4-chloro-3-fluorophenyl)-4-(pyridin-2-ylmethyl)-3,4-dihydrobenzo[f][1,4]oxazepin-5(2H)-one] | 58 | 34 | 26 | –
5 | O=C1c2cc(-c3ccc(OC(F)(F)F)cc3)cc(F)c2OCCN1Cc1ccccc1 [II-165, 4-benzyl-9-fluoro-7-(4-(trifluoromethoxy)phenyl)-3,4-dihydrobenzo[f][1,4]oxazepin-5(2H)-one] | 56 | 15 | 30 | –
6 | O=C1c2cc(-c3ccc(C(F)(F)F)cc3)cc(F)c2OCCN1Cc1ccccc1 [II-166, 4-benzyl-9-fluoro-7-(4-(trifluoromethyl)phenyl)-3,4-dihydrobenzo[f][1,4]oxazepin-5(2H)-one] | 53 | 20 | 34 | –
7 | O=C1c2cc(-c3ccc(OC(F)(F)F)cc3)c(F)cc2OCCN1Cc1ccccc1 [II-167, 4-benzyl-8-fluoro-7-(4-(trifluoromethoxy)phenyl)-3,4-dihydrobenzo[f][1,4]oxazepin-5(2H)-one] | 56 | 20 | 25 | –
8 | O=C1c2cc(-c3ccc(C(F)(F)F)cc3)c(F)cc2OCCN1Cc1ccccc1 [II-168, 4-benzyl-8-fluoro-7-(4-(trifluoromethyl)phenyl)-3,4-dihydrobenzo[f][1,4]oxazepin-5(2H)-one] | 44 | 36 | 47 | –
9 | O=C1c2cc(-c3ccc(Cl)c(F)c3)ccc2OCCN1Cc1ncccc1F [II-169, 7-(4-chloro-3-fluorophenyl)-4-((3-fluoropyridin-2-yl)methyl)-3,4-dihydrobenzo[f][1,4]oxazepin-5(2H)-one] | 65 | 23 | 23 | –
10 | O=C1c2cc(-c3ccc(C(F)(F)F)cc3F)ccc2OCCN1Cc1ncccc1F [II-170, 7-(2-fluoro-4-(trifluoromethyl)phenyl)-4-((3-fluoropyridin-2-yl)methyl)-3,4-dihydrobenzo[f][1,4]oxazepin-5(2H)-one] | 66 | 36 | 31 | –
11 | Cc1cncc(CN2CCOc3ccc(-c4ccc(OC(F)(F)F)cc4)cc3C2=O)n1 [II-175, 4-((6-methylpyrazin-2-yl)methyl)-7-(4-(trifluoromethoxy)phenyl)-3,4-dihydrobenzo[f][1,4]oxazepin-5(2H)-one] | 53 | 21 | 16 | –
12 | O=C1c2cc(-c3ccc(C(F)(F)F)cc3)ccc2OCCN1Cc1ncccc1F [II-176, 4-((3-fluoropyridin-2-yl)methyl)-7-(4-(trifluoromethyl)phenyl)-3,4-dihydrobenzo[f][1,4]oxazepin-5(2H)-one] | 68 | 45 | 44 | –
13 | Cn1ccnc1CN1CCOc2ccc(-c3ccc(OC(F)(F)F)cc3)cc2C1=O [II-186, 4-((1-methyl-1H-imidazol-2-yl)methyl)-7-(4-(trifluoromethoxy)phenyl)-3,4-dihydrobenzo[f][1,4]oxazepin-5(2H)-one] | 55 | 20 | 30 | –
14 | O=C1c2cc(-c3ccc(OC(F)(F)F)cc3)ccc2OCCN1Cc1nccn1Cc1ccccc1 [II-187] | 62 | 9 | 21 | –
15 | O=C1c2cc(-c3ccc(OC(F)(F)F)cc3)ccc2OCCN1Cc1cn2ccccc2n1 [II-189, 4-(imidazo[1,2-a]pyridin-2-ylmethyl)-7-(4-(trifluoromethoxy)phenyl)-3,4-dihydrobenzo[f][1,4]oxazepin-5(2H)-one] | 53 | 23 | 28 | –
16 | Cn1cc(C(=O)N2CCOc3ccc(-c4ccc(OC(F)(F)F)cc4)cc3C2)cn1 [III-12, (1-methyl-1H-pyrazol-4-yl)(7-(4-(trifluoromethoxy)phenyl)-2,3-dihydrobenzo[f][1,4]oxazepin-4(5H)-yl)methanone] | 39 | 10 | 17 | –
17 | O=C(c1cc[nH]n1)N1CCOc2ccc(-c3ccc(OC(F)(F)F)cc3)cc2C1 [III-15, (1H-pyrazol-3-yl)(7-(4-(trifluoromethoxy)phenyl)-2,3-dihydrobenzo[f][1,4]oxazepin-4(5H)-yl)methanone] | 50 | 19 | 18 | –
18 | O=C(Cc1ccccn1)N1CCOc2ccc(-c3ccc(C(F)(F)F)cc3)cc2C1 [III-29, 2-(pyridin-2-yl)-1-(7-(4-(trifluoromethyl)phenyl)-2,3-dihydrobenzo[f][1,4]oxazepin-4(5H)-yl)ethanone] | 48 | 11 | 14 | –
19 | O=C1c2cc(-c3ccc(C(F)(F)F)s3)ccc2OCCN1Cc1ccccn1 [VI-31, 4-(pyridin-2-ylmethyl)-7-(5-(trifluoromethyl)thiophen-2-yl)-3,4-dihydrobenzo[f][1,4]oxazepin-5(2H)-one] | 61 | 50 | 42 | –
20 | O=C1c2cc(-c3ccc(C4CC4)s3)ccc2OCCN1Cc1ccccn1 [VI-32, 7-(5-cyclopropylthiophen-2-yl)-4-(pyridin-2-ylmethyl)-3,4-dihydrobenzo[f][1,4]oxazepin-5(2H)-one] | 66 | 28 | 26 | –
21 | O=C1c2nc(-c3ccc(OC(F)(F)F)cc3)ccc2OCCN1Cc1ccccc1 [XII-2, 4-benzyl-7-(4-(trifluoromethoxy)phenyl)-3,4-dihydropyrido[2,3-f][1,4]oxazepin-5(2H)-one] | 57 | 45 | 64 | –
22 | O=C1c2nc(-c3ccc(C(F)(F)F)cc3)ccc2OCCN1Cc1ccccc1 [XII-3, 4-benzyl-7-(4-(trifluoromethyl)phenyl)-3,4-dihydropyrido[2,3-f][1,4]oxazepin-5(2H)-one] | 44 | 51 | 79 | –
